# In article PMC7719162, “Positioning of an unprecedented spiro[5.5]undeca ring system into kinase inhibitor space” (Scientific Reports, 2020):
# Where two headings read alike, the source gives them in different places.
# Key:
# [1] = biological target: T1, PKCa (Homo sapiens, UniProt P17252); conditions: cited from earlier work
# T1 construct: purchased Reaction Biology Corp
# [2] = biological target: T2, RIPK5 (Homo sapiens, UniProt Q6XUX3); conditions: cited from earlier work
# T2 construct: purchased Reaction Biology Corp
# T2 sequence (Q6XUX3 1-929): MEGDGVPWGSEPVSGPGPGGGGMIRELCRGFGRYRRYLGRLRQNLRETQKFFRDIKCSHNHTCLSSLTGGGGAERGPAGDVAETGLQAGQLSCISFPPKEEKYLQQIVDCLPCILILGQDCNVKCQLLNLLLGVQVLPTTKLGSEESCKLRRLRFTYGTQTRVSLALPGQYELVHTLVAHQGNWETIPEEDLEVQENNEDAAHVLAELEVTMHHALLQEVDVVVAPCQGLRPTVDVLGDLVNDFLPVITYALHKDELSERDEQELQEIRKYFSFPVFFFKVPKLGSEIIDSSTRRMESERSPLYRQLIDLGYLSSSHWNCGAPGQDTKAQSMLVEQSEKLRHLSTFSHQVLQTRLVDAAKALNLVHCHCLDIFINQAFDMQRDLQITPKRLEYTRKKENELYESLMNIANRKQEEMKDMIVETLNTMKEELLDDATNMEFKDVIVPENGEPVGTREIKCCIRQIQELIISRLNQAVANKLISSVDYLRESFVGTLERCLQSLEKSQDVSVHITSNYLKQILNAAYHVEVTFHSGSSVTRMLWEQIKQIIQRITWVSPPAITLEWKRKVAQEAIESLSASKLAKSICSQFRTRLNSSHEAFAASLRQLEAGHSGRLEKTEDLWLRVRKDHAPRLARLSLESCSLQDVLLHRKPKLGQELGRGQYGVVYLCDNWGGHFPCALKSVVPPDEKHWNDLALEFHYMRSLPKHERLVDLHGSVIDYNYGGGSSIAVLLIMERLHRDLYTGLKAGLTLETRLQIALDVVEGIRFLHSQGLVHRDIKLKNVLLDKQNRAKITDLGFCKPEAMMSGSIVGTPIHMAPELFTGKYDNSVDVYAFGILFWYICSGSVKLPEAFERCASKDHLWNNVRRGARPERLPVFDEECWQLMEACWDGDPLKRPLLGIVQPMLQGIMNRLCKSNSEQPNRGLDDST
# [3] = biological target: T3, CDK1/cyclin B (Homo sapiens, UniProt P06493); conditions: cited from earlier work
# T3 construct: purchased Reaction Biology Corp
# [4] = biological target: T4, DAPK1 (Homo sapiens, UniProt P53355); conditions: cited from earlier work
# T4 construct: purchased Reaction Biology Corp
# [5] = tested on: IL-1β; test: Secreted IL-1β ELISA in LPS-induced BV-2 cells; type: cell-based, murine
# Method: To evaluate the secreted level of Prostaglandin E2 (PGE2), Tumor necrosis factor (TNF-α), Interleukin (IL-6), Interleukin (IL-1β), BV2 cells were seeded in a 6 well plate at the density of 1.5 × 10^6 cells/well in DMEM and incubated for 24 h. Seeded cells sere pretreated and, activated with LPS for next 24 h. conditioned medium from treated cells were collected and stored at -80 degree for longer period of time. The amount of TNF-α, IL-1β, PGE2,and IL-6 were evaluated using the competitive enzyme immunoassay kit. PGE2 kit were obtained from (Cayman Chemical, Ann Arbor, MI, USA) and TNF-α, IL-1β, and IL-6 were measured using ELISA development kits (R&D Systems, Minneapolis, MN, USA). All the protocol was exactly followed as written in the manual.
# [6] = biological target: T5, JNK2 (Homo sapiens, UniProt P45984); test: Kinase panel assay (radiolabelled); type: biochemical; conditions: ATP 10 μM
# T5 construct: purchased Reaction Biology Corp
# T5 sequence (P45984 whole entry): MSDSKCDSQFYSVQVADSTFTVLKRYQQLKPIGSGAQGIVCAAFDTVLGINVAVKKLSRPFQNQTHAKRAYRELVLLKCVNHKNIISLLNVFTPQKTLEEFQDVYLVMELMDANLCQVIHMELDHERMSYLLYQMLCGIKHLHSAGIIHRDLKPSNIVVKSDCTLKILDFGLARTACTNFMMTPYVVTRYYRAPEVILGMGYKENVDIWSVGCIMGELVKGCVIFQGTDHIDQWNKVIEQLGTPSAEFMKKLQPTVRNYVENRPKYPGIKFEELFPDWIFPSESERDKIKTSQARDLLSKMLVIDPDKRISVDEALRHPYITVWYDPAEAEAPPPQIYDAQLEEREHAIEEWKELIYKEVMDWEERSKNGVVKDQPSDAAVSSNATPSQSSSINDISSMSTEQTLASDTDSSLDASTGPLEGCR
# [7] = biological target: T6, mTOR/FRAP1 (Homo sapiens, UniProt P42345); test: Kinase panel assay (radiolabelled); type: biochemical; conditions: 30 μM compound, ATP 10 μM, duplicates Data 1/Data 2
# T6 construct: purchased Reaction Biology Corp
# [8] = biological target: T7, TRKC (G623E) (Homo sapiens, UniProt Q16288, G623E); test: Kinase panel assay (radiolabelled); type: biochemical; conditions: 30 μM compound, ATP 10 μM, duplicates Data 1/Data 2
# T7 construct: purchased Reaction Biology Corp
# T7 sequence (Q16288 32-839 G623E): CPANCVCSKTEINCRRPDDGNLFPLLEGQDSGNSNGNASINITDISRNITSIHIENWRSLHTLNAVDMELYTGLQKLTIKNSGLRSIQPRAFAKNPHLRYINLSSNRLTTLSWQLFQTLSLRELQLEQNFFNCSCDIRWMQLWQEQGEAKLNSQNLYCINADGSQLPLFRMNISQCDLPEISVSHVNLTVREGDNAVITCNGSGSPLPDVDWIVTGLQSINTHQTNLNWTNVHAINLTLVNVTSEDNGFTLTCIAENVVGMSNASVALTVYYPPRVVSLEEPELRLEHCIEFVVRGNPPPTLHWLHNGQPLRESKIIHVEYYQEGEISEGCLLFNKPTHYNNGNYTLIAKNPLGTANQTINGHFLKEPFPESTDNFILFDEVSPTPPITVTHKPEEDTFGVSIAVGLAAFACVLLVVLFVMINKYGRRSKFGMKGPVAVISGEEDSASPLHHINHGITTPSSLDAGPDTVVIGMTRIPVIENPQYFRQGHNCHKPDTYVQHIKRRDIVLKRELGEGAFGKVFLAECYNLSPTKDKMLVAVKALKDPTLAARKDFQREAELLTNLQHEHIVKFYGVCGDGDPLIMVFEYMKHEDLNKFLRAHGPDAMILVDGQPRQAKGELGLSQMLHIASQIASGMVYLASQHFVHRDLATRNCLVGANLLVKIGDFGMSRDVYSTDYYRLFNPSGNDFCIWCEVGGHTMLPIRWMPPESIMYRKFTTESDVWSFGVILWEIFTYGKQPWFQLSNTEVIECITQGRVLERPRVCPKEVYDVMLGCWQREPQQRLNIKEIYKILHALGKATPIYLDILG
# [9] = biological target: T8, PI4Kb (Homo sapiens, UniProt Q9UBF8); test: Kinase panel assay (lipid kinase); type: biochemical; conditions: 30 μM compound, ATP 10 μM, duplicates Data 1/Data 2
# T8 construct: purchased Reaction Biology Corp
# T8 sequence (Q9UBF8 whole entry): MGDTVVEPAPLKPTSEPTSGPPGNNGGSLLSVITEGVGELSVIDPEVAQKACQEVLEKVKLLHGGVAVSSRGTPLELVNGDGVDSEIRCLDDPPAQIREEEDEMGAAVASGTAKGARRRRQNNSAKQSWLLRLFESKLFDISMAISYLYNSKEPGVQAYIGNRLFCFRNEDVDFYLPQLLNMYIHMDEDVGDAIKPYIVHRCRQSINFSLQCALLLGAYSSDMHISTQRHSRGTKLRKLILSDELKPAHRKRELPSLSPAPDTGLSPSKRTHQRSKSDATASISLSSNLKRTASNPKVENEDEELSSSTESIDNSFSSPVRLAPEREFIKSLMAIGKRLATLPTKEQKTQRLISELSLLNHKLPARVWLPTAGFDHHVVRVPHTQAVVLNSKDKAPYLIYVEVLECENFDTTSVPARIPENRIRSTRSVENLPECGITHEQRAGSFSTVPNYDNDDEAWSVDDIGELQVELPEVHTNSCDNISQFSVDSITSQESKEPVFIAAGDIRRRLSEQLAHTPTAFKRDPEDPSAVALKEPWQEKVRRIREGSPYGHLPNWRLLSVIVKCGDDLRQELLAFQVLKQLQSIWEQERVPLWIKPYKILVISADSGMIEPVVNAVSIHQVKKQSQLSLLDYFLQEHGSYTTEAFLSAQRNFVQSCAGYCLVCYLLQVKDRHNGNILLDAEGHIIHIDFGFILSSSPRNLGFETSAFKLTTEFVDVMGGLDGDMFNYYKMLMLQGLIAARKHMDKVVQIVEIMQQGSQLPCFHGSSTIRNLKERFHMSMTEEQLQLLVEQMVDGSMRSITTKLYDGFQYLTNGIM
# [10] = biological target: T9, ARK5/NUAK1 (Homo sapiens, UniProt O60285); test: Kinase panel assay (radiolabelled); type: biochemical; conditions: ATP 10 μM
# T9 construct: purchased Reaction Biology Corp
# T9 sequence (O60285 1-661): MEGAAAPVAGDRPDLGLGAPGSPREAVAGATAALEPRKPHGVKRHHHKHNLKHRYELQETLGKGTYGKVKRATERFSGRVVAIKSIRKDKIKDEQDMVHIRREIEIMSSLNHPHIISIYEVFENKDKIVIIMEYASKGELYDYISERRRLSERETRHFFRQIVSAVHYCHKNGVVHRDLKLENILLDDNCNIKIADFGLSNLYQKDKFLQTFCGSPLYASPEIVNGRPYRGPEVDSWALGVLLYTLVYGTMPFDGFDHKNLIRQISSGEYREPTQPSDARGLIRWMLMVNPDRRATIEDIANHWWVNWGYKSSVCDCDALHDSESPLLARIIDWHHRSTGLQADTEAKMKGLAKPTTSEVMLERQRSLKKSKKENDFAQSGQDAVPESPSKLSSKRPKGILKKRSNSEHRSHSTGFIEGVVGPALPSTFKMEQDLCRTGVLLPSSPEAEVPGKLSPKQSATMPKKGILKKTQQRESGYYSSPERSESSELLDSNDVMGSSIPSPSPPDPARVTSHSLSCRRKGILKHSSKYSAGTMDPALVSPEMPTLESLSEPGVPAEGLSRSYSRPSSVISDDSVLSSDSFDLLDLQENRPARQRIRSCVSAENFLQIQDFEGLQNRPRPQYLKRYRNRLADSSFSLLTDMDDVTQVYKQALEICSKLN
# [11] = biological target: T10, PI3Ka (p110a/p85a) (Homo sapiens, UniProt P42336); test: Kinase panel assay (lipid kinase); type: biochemical; conditions: 30 μM compound, ATP 10 μM, duplicates Data 1/Data 2
# T10 construct: purchased Reaction Biology Corp
# T10 sequence (P42336 whole entry): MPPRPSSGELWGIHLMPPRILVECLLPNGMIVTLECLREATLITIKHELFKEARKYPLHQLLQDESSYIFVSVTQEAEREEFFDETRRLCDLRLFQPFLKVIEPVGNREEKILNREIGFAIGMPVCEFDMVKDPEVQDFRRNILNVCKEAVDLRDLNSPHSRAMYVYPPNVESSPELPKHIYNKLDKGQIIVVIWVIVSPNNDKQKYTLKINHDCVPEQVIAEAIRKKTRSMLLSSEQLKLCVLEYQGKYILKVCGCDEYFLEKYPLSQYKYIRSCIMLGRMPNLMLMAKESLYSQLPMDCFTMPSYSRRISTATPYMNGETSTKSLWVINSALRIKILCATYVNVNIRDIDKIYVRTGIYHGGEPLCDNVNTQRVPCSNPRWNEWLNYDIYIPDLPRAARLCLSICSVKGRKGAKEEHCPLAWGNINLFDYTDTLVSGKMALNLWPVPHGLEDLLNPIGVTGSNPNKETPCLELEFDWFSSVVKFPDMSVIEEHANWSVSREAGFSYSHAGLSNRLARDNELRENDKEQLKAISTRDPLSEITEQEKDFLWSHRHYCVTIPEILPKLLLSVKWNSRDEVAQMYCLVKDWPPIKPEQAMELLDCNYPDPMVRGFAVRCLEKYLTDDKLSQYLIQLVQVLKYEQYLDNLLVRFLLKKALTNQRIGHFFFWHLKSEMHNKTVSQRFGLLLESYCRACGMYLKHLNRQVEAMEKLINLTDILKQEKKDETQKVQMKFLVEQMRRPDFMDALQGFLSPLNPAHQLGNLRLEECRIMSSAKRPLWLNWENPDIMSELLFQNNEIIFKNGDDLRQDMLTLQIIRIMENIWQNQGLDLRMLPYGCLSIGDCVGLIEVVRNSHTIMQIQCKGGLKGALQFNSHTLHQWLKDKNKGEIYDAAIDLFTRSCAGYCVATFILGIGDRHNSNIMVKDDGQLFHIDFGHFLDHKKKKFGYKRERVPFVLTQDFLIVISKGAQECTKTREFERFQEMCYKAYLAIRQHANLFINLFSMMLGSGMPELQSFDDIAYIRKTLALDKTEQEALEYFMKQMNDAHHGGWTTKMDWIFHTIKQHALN
# T10 sequence (P27986 whole entry partner): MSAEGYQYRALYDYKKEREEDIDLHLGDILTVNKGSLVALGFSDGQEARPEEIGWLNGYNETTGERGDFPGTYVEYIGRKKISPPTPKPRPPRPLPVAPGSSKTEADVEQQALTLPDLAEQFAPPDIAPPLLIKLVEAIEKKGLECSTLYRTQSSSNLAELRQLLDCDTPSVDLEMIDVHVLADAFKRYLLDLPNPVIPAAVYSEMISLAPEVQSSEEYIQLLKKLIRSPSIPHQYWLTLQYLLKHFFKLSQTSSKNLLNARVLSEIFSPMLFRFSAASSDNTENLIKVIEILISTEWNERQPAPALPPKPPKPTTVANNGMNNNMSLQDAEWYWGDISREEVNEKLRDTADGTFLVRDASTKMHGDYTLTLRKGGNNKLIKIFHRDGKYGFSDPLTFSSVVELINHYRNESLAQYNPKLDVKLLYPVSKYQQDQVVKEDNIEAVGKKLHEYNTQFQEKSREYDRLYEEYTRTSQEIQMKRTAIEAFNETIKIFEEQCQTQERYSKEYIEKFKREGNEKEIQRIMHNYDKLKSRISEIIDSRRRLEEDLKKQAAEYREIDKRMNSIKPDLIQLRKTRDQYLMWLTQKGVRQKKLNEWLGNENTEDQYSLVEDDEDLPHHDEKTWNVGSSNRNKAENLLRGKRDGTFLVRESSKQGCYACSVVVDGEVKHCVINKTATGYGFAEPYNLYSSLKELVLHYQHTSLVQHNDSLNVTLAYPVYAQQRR
# [12] = biological target: T11, PI3K (p110a/p65a) (Homo sapiens, UniProt P42336); test: Kinase panel assay (lipid kinase); type: biochemical; conditions: 30 μM compound, ATP 10 μM, duplicates Data 1/Data 2
# T11 construct: purchased Reaction Biology Corp
# T11 sequence (P42336 whole entry): as the sequence (P42336 whole entry) above
# [13] = biological target: T1, PKCa; test: Kinase panel assay (radiolabelled); type: biochemical; conditions: ATP 10 μM
# [14] = biological target: T12, TRKC (L686M) (Homo sapiens, UniProt Q16288, L686M); test: Kinase panel assay (radiolabelled); type: biochemical; conditions: 30 μM compound, ATP 10 μM, duplicates Data 1/Data 2
# T12 construct: purchased Reaction Biology Corp
# T12 sequence (Q16288 32-839 L686M): as the sequence (Q16288 32-839 G623E) above, with E592G, L655M counted along it
# [15] = biological target: T2, RIPK5; test: Kinase panel assay (radiolabelled); type: biochemical; conditions: ATP 10 μM
# [16] = 30 μM compound, duplicates Data 1/Data 2
# [17] = 30 μM compound, duplicates Data 1/Data 2, read-out: % Enzyme Activity (relative to DMSO controls)
# [18] = 30 μM, average ± SD, read-out: % Residual Activity at 30 μM
# [19] = read-out: % Enzyme Activity (relative to DMSO controls)
compound,measurement,setting,value
O=C1C=CC2(C=C1)OCC(Cc1cc(C(F)(F)F)cc(C(F)(F)F)c1)C(=O)N2c1ccccc1 (racemic) [1c],% Residual Activity at 30 μM,[1],45.6 ± 1.2%
same,% Residual Activity at 30 μM,[2],59.3 ± 1.0%
same,% Residual Activity at 30 μM,[3],46.0 ± 0.8%
same,% Residual Activity at 30 μM,[4],45.4 ± 0.1%
"O=C1C=CC2(C=C1)OCC(Cc1cn(-c3cccc(Cl)c3)nn1)C(=O)N2c1ccccc1 (centres unmarked) [2d, 3-((1-(3-Chlorophenyl)-1H-1,2,3-triazol-4-yl)methyl)-5-phenyl-1-oxa-5-azaspiro[5.5]undeca-7,10-diene-4,9-dione]",IL-1β level,[5],concentration-dependent manner
same,% Enzyme Activity (relative to DMSO controls),[6]; [16],79.67%
same,remaining activity at 30 µM,[6]; [17],80.3%
same,remaining activity at 30 µM,[6]; [18],80 ± 0.4%
same,% Enzyme Activity (relative to DMSO controls),[7],96.09%
same,remaining activity at 30 µM,[7]; [19],103%
same,% Enzyme Activity (relative to DMSO controls),[8],114.78%
same,remaining activity at 30 µM,[8]; [19],118%
same,% Enzyme Activity (relative to DMSO controls),[9],81.00%
same,remaining activity at 30 µM,[9]; [19],81.6%
same,% Enzyme Activity (relative to DMSO controls),[10]; [16],84.16%
same,remaining activity at 30 µM,[10]; [17],93.6%
same,remaining activity at 30 µM,[10]; [18],88.9 ± 6.7%
same,% Enzyme Activity (relative to DMSO controls),[11],250.92%
same,remaining activity at 30 µM,[11]; [19],252%
same,% Enzyme Activity (relative to DMSO controls),[12],82.25%
same,remaining activity at 30 µM,[12]; [19],83.8%
same,% Enzyme Activity (relative to DMSO controls),[13]; [16],62.24%
same,remaining activity at 30 µM,[13]; [17],63%
same,remaining activity at 30 µM,[13]; [18],62.6 ± 0.5%
same,% Enzyme Activity (relative to DMSO controls),[14],106.77%
same,remaining activity at 30 µM,[14]; [19],107%
same,% Enzyme Activity (relative to DMSO controls),[15]; [16],83.85%
same,remaining activity at 30 µM,[15]; [17],86.1%
same,remaining activity at 30 µM,[15]; [18],85 ± 1.6%
